Literature values, collected in US6585958B1, “Medicinal aerosol formulations” (Jago Research AG, priority 1998, dated 2003).

Conditions: at 20° C.

Structure (SMILES)	density	vapor pressure
FCC(F)(F)F [HFA 134a, 1,1,1,2-tetrafluoroethane]	about 1.2 mg/ml	about 6 bar
FC(C(F)(F)F)C(F)(F)F [HFA 227, 1,1,1,2,3,3,3-heptafluoropropane]	about 1.4 mg/ml	about 4.2 bar
